Results published in US6706663B2, “Herbicidal 3-heterocyclic substituted benzisothiazole and benzisoxazole compounds” (Wyeth, priority 2000, dated 2004).

Legend:
[1] = tested on: CHEAL (Chenopodium album); test: Postemergence herbicidal evaluation; type: in vivo, L.; settings: postemergence
Summary of the method: (§1)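 Seedlings grown for about two weeks were sprayed postemergence and then kept under standard greenhouse care. Injury was rated visually 4–5 weeks after treatment on a 0–9 scale against untreated controls, and ratings from repeat tests were averaged.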

[2] = tested on: CASOB (Cassia obtusifolia); test: Postemergence herbicidal evaluation; type: in vivo, L.; settings: postemergence
Summary of the method: as §1

[3] = tested on: AMBEL (Ambrosia artemisifolia); test: Postemergence herbicidal evaluation; type: in vivo, L.; settings: postemergence
Summary of the method: as §1

[4] = tested on: SAGPY (Sagittaria pygmaea); test: Flooded paddy, preemergence weed control; type: in vivo, L.; settings: rated 3-4 weeks after treatment, 0-9 rating scale
Summary of the method: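 Visual 0–9 ratings versus controls scored stand, vigor, malformation, size, chlorosis and overall appearance. Plants grew from seeds or propagating organs sown 0.5 cm deep in silt loam, with water held 1.5–3 cm above the soil for the whole test under greenhouse care.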

ZEAMX (Corn, Field) = test: Postemergence herbicidal evaluation; type: in vivo, Zea mays, L.; settings: postemergence
Summary of the method: as §1

[5] = tested on: CHEAL (Chenopodium album); test: Preemergence herbicidal evaluation; type: in vivo, L.; settings: rated 4-5 weeks after treatment
Summary of the method: (§2)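 Seeds mixed with potting soil were planted atop about one inch of soil, then sprayed with test compound in aqueous acetone. Cups were kept in the greenhouse and rated visually 4–5 weeks after treatment on a 0–9 scale against untreated control.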

[6] = tested on: CASOB (Cassia obtusifolia); test: Preemergence herbicidal evaluation; type: in vivo, L.; settings: rated 4-5 weeks after treatment
Summary of the method: as §2

[7] = tested on: AMBEL (Ambrosia artemisifolia); test: Preemergence herbicidal evaluation; type: in vivo, L.; settings: rated 4-5 weeks after treatment
Summary of the method: as §2

[8] = tested on: GLXMAW (Soybean, Williams); test: Postemergence herbicidal evaluation; type: in vivo, Glycine max, (L.) Merr. cv Williams; settings: postemergence
Summary of the method: as §1

[9] = tested on: ABUTH (Abutilon theophrasti); test: Postemergence herbicidal evaluation; type: in vivo, Medic.; settings: postemergence
Summary of the method: as §1

ORYSAT (Rice, Tebonnet) [10] = test: Flooded paddy, post-transplant rice tolerance; type: in vivo, Oryza sativa, (L.) Tebonnet; settings: flooded paddy, post-transplant rice, rated 3-4 weeks after treatment, 0-9 rating scale
Summary of the method: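 Two ten-day-old seedlings were transplanted into silt loam, flooded and held at 1.5 to 3 cm water above the soil before herbicide treatment. Pots stayed in the greenhouse at that water level. Injury was scored visually on a 0-9 scale versus untreated control.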

[11] = tested on: ECHCG (Echinochloa crus-galli); test: Postemergence herbicidal evaluation; type: in vivo, (L.) Beau; settings: postemergence
Summary of the method: as §1

GALAP (Galium aparine) = test: Postemergence herbicidal evaluation; type: in vivo; settings: postemergence
Summary of the method: as §1

[12] = tested on: CYPSE (Cyperus serotinus); test: Flooded paddy, preemergence weed control; type: in vivo, Rottb.; settings: rated 3-4 weeks after treatment, 0-9 rating scale
Summary of the method: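 Seeds or propagules were planted 0.5 cm deep in silt loam and flooded to 1.5–3 cm. Compounds in 50/50 v/v aqueous/acetone were pipetted into the flood water at about 0.0080 to 0.1250 kg/ha. After 3–4 weeks in the greenhouse, effect was rated visually on a 0–9 scale versus untreated control.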

[13] = tested on: ABUTH (Abutilon theophrasti); test: Preemergence herbicidal evaluation; type: in vivo, Medic.; settings: rated 4-5 weeks after treatment
[14] = tested on: IPOHE (Ipomoea hederacea); test: Preemergence herbicidal evaluation; type: in vivo, (L.) Jacq.; settings: rated 4-5 weeks after treatment
[15] = tested on: TRZAWR (Wheat, Winter, cv Riband); test: Preemergence herbicidal evaluation; type: in vivo, Triticum aestivum; settings: rated 4-5 weeks after treatment
Summary of the method: as §2

ORYSAT (Rice, Tebonnet) [16] = test: Postemergence herbicidal evaluation; type: in vivo, Oryza sativa, (L.) Tebonnet; settings: postemergence
Summary of the method: as §1

ORYSAT (Rice, Tebonnet) [17] = test: Preemergence herbicidal evaluation; type: in vivo, Oryza sativa, (L.) Tebonnet; settings: rated 4-5 weeks after treatment

## C[C@@H]1C[C@H](C)OC(c2nsc3ccc(-n4c(=O)cc(C(F)(F)F)n(C)c4=O)cc23)O1 (stereo partly drawn) [Compound 51, 3-[3-[(4R,6S)-4,6-dimethyl-m-dioxan-2-yl]-1,2-benzisothiazol-5-yl]-1-methyl-6-(trifluoromethyl)uracil]
[1]; rate 0.0320 kg/ha
  CHEAL herbicidal rating: 7.0
[1]; rate 0.0620 kg/ha
  CHEAL herbicidal rating: 8.0
[2]; rate 0.0320 kg/ha
  CASOB herbicidal rating: 2.0
[2]; rate 0.0620 kg/ha
  CASOB herbicidal rating: 6.0
[3]; rate 0.0320 kg/ha
  AMBEL herbicidal rating: 9.0
[3]; rate 0.0620 kg/ha
  AMBEL herbicidal rating: 9.0
[4]; rate 0.0080 kg/ha
  herbicidal rating, SAGPY: 0.0
[4]; rate 0.0320 kg/ha
  herbicidal rating, SAGPY: 7.0
[4]; rate 0.1250 kg/ha
  herbicidal rating, SAGPY: 9.0
ZEAMX (Corn, Field); rate 0.0320 kg/ha
  ZEAMX herbicidal rating: 5.0
ZEAMX (Corn, Field); rate 0.0620 kg/ha
  ZEAMX herbicidal rating: 5.5
[5]; Rate 0.0620 kg/ha
  Preemergence herbicidal rating CHEAL: 9.0
[5]; Rate 0.1250 kg/ha
  Preemergence herbicidal rating CHEAL: 9.0
[5]; Rate 0.2500 kg/ha
  Preemergence herbicidal rating CHEAL: 9.0
[6]; Rate 0.0620 kg/ha
  Preemergence herbicidal rating CASOB: 9.0
[6]; Rate 0.1250 kg/ha
  Preemergence herbicidal rating CASOB: 9.0
[6]; Rate 0.2500 kg/ha
  Preemergence herbicidal rating CASOB: 9.0
[7]; Rate 0.0620 kg/ha
  Preemergence herbicidal rating AMBEL: 9.0
[7]; Rate 0.1250 kg/ha
  Preemergence herbicidal rating AMBEL: 9.0
[7]; Rate 0.2500 kg/ha
  Preemergence herbicidal rating AMBEL: 9.0
[8]; rate 0.0320 kg/ha
  GLXMAW herbicidal rating: 5.0
[8]; rate 0.0620 kg/ha
  GLXMAW herbicidal rating: 7.5
[9]; rate 0.0320 kg/ha
  ABUTH herbicidal rating: 9.0
[9]; rate 0.0620 kg/ha
  ABUTH herbicidal rating: 9.0
ORYSAT (Rice, Tebonnet) [10]; rate 0.0080 kg/ha
  herbicidal rating, ORYSAT (rice tolerance): 7.0
ORYSAT (Rice, Tebonnet) [10]; rate 0.0320 kg/ha
  herbicidal rating, ORYSAT (rice tolerance): 9.0
ORYSAT (Rice, Tebonnet) [10]; rate 0.1250 kg/ha
  herbicidal rating, ORYSAT (rice tolerance): 9.0
[11]; rate 0.0320 kg/ha
  ECHCG herbicidal rating: 3.0
[11]; rate 0.0620 kg/ha
  ECHCG herbicidal rating: 3.0
GALAP (Galium aparine); rate 0.0320 kg/ha
  GALAP herbicidal rating: 2.0
GALAP (Galium aparine); rate 0.0620 kg/ha
  GALAP herbicidal rating: 5.0
[12]; rate 0.0320 kg/ha
  herbicidal rating, CYPSE: 9.0
[12]; rate 0.1250 kg/ha
  herbicidal rating, CYPSE: 9.0
[13]; Rate 0.0620 kg/ha
  Preemergence herbicidal rating ABUTH: 9.0
[13]; Rate 0.1250 kg/ha
  Preemergence herbicidal rating ABUTH: 9.0
[13]; Rate 0.2500 kg/ha
  Preemergence herbicidal rating ABUTH: 9.0
[14]; Rate 0.0620 kg/ha
  Preemergence herbicidal rating IPOHE: 6.5
[14]; Rate 0.1250 kg/ha
  Preemergence herbicidal rating IPOHE: 9.0
[14]; Rate 0.2500 kg/ha
  Preemergence herbicidal rating IPOHE: 9.0
[15]; Rate 0.0620 kg/ha
  Preemergence herbicidal rating TRZAWR: 9.0
[15]; Rate 0.1250 kg/ha
  Preemergence herbicidal rating TRZAWR: 9.0
[15]; Rate 0.2500 kg/ha
  Preemergence herbicidal rating TRZAWR: 9.0
ORYSAT (Rice, Tebonnet) [16]; rate 0.0320 kg/ha
  ORYSAT herbicidal rating: 3.0
ORYSAT (Rice, Tebonnet) [16]; rate 0.0620 kg/ha
  ORYSAT herbicidal rating: 4.0
ORYSAT (Rice, Tebonnet) [17]; Rate 0.0620 kg/ha
  Preemergence herbicidal rating ORYSAT: 8.5
ORYSAT (Rice, Tebonnet) [17]; Rate 0.1250 kg/ha
  Preemergence herbicidal rating ORYSAT: 9.0
ORYSAT (Rice, Tebonnet) [17]; Rate 0.2500 kg/ha
  Preemergence herbicidal rating ORYSAT: 9.0
